Data as given in article PMC5144158 (Chemical research in toxicology, 2016).
“Also recorded” adds a separate entry of the source. Like-named read-outs stand apart in the source and are kept apart here.

Key:
[1] = system: rodent PPAR and CAR target genes; details: in vivo rodent studies, ref [29],[30]; cited from earlier work
Wild-type mice = details: PPARα knockout mice not protected, ref [59]; cited from earlier work
hCAR2 [2] = target: T1, hCAR2 (Homo sapiens, UniProt Q14994); assay: Transactivation luciferase reporter assay in COS-1 cells, CMV2-CAR2; format: cell-based; details: for activation of hCAR2 (screen): COS-1, 2B6-XREM-PBREM reporter, Figure 2
T1 sequence (Q14994 1-352): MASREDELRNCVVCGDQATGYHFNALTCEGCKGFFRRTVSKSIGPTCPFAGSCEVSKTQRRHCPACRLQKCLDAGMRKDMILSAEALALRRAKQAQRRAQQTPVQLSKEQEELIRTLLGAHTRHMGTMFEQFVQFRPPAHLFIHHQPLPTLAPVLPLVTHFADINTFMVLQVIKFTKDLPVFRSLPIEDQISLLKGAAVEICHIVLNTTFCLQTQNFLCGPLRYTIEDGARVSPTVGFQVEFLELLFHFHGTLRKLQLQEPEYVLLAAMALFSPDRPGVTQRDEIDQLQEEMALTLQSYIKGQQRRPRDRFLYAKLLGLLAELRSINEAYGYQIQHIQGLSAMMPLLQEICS
T1 sequence (P19793 1-462 partner): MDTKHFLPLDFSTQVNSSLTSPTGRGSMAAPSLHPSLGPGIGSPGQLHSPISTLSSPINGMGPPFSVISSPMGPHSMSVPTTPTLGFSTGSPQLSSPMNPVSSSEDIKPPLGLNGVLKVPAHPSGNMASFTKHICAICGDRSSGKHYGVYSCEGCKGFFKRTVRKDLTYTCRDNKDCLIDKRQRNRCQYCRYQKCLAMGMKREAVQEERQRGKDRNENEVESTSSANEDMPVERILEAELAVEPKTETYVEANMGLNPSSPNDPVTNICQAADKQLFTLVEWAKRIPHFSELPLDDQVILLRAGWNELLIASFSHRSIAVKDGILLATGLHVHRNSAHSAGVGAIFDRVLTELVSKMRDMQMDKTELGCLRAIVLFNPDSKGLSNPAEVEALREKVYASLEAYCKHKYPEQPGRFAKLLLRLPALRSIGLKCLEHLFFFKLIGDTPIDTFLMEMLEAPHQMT

male rodents = details: varying treatment modalities, ref [5]–[7]; cited from earlier work
hPXR [3] = target: T2, hPXR (Homo sapiens, UniProt O75469); assay: Transactivation luciferase reporter assay in COS-1 cells, CMV2-PXR; details: for activation of hPXR (screen): COS-1, 2B6-XREM-PBREM reporter, Figure 2
T2 sequence (O75469 1-434): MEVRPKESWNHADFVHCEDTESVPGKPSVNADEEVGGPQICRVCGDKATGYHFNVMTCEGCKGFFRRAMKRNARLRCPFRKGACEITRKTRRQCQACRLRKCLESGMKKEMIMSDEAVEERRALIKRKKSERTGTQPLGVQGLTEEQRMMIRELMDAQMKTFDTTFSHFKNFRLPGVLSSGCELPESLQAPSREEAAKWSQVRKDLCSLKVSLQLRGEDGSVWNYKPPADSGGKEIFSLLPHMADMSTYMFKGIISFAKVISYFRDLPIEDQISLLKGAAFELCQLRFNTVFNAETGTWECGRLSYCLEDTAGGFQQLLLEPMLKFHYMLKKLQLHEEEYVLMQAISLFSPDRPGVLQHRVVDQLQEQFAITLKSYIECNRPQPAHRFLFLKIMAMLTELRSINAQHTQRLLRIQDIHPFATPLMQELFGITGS
T2 sequence (P19793 1-462 partner): T1 sequence (P19793 1-462 partner)

hCAR3 = target: T3, hCAR3 (Homo sapiens, UniProt Q14994, DEL233-236); assay: Transactivation luciferase reporter assay in COS-1 cells, CMV2-CAR3; format: cell-based; details: COS-1, 2B6-XREM-PBREM reporter, 24 h, Figure 2
T3 sequence (Q14994 with tags, fused parts or gaps isoform Q14994-8 DEL233-236): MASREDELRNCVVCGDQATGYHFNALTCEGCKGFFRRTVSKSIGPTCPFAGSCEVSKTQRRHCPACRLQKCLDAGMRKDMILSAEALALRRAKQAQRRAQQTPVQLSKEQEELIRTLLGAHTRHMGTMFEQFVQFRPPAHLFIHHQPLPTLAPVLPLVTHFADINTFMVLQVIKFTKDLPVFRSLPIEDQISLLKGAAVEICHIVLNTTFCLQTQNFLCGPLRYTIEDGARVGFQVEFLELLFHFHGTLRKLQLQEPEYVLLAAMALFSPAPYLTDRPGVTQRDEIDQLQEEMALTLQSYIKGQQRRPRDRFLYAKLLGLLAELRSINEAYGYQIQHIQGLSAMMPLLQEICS
T3 sequence (P19793 1-462 partner): T1 sequence (P19793 1-462 partner)

hCAR1 = target: T4, hCAR1 (Homo sapiens, UniProt Q14994); assay: Transactivation luciferase reporter assay in COS-1 cells, CMV2-CAR1; format: cell-based; details: COS-1, 2B6-XREM-PBREM reporter, ANDRO 10 μM, 24 h, Figure 2
T4 sequence (Q14994 1-348 isoform Q14994-2): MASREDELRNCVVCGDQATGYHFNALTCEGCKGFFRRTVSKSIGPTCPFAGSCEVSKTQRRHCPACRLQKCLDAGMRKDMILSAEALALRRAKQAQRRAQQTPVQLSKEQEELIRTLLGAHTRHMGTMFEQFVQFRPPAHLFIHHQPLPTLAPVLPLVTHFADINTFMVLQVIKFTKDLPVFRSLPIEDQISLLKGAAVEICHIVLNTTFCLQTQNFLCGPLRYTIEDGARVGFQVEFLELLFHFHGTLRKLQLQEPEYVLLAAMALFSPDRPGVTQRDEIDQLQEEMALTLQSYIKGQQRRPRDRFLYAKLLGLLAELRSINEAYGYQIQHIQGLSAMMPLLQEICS

female rodents = details: ref [8]; cited from earlier work
[4] = system: hPPARα, hPPARβ/∂, and hPPARγ; assay: PPRE reporter transactivation assays, statements on the hPPARs collectively; format: cell-based, human
3T3L1 cells = details: cited from earlier work
hPXR [5] = target: hPXR (Homo sapiens, UniProt O75469); assay: Mammalian two-hybrid assay, PXR LBD with SRC1, COS-1 cells; details: COS-1, 24 h, Figure 5
CYP2B6 = assay: Primary human hepatocyte mRNA expression; details: donor HH3, 30 μM, 24 h
hCAR2 [6] = target: hCAR2 (Homo sapiens, UniProt Q14994); assay: Mammalian two-hybrid assay, CAR LBD with SRC1, COS-1 cells; format: cell-based; details: COS-1, 24 h, Figure 5
hPPARα = target: T5, hPPARα (Homo sapiens, UniProt Q07869); format: cell-based; details: COS-1, 24 h, Figure 4A
T5 sequence (Q07869 1-468): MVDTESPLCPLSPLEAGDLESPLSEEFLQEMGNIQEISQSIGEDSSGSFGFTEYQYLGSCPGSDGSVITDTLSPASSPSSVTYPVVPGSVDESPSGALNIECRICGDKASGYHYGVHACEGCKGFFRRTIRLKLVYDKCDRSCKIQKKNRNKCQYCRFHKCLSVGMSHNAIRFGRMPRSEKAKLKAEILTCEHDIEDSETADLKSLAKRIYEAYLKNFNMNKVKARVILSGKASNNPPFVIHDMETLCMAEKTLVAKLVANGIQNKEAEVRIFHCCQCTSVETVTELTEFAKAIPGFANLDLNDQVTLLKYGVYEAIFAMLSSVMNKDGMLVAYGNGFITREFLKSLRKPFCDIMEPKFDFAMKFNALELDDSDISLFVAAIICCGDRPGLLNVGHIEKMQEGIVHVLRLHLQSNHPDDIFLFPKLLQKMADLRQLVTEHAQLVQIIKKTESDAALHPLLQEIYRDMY

[7] = system: PPAR target genes (ACOX1, ANGPTL4, CPT2, PDK4); assay: Primary human hepatocyte mRNA expression; format: cell-based; details: primary human hepatocytes HH1–HH3, 24 h; for expression of PPAR target genes (overall): MEHP/MiNP 0.1–30 μM
hCAR variants and hPXR = details: transactivation assays, ref [47]; cited from earlier work

**Q.** What does the source list for `CCCCC(CC)COC(=O)c1ccccc1C(=O)OCC(CC)CCCC` (stereo not shown) [DEHP, di(2-ethylhexyl) phthalate]?
**A.** activation of rodent PPAR and CAR target genes [1]: activation of rodent PPAR and CAR target genes; phenotype on control diet or high fat diet (Wild-type mice): exhibited a lean phenotype; EC50 (hCAR2 [2]): 0.1 µM; activation of hCAR2 (screen) (hCAR2 [2]; 24 h): activated hCAR2 and hPXR; max fold activation (hCAR2) (hCAR2 [2]; COS-1, CYP2B6-PBREM-XREM reporter, 24 h, Figure 6/Table 4): 7.1 fold; testosterone levels, reproductive organ weights, sperm counts, sperm motility (male rodents): decrease testosterone levels, reproductive organ weights, sperm counts, and sperm motility; EC50 (hPXR [3]): 3.5 µM; activation of hPXR (screen) (hPXR [3]; 24 h): activated hCAR2 and hPXR; max fold activation (hPXR) (hPXR [3]; COS-1, 3A4-XREM reporter, 24 h, Figure 6/Table 4): 13.7 fold; activation of hCAR3 (screen) (hCAR3): only minimal activity; activation of hCAR1 (screen) (hCAR1): only minimal activity; also recorded: little or no activation of hCAR1; estradiol levels and estrus cycle (female rodents): Decreased estradiol levels and estrus cycle disruptions; activation of the PPRE reporter by hPPARs (screen) ([4]; COS-1, 24 h, Figure 3, effects only at highest test dose (100 μM)): neither DEHP nor DiNP activated the hPPARs; activation of the hPPARs (dose–response, higher doses) ([4]; hPPARα and hPPARγ, higher doses than screening, data not shown): neither of the diphthalates activated the hPPARs

**Q.** What does the source list for `CCCCC(CC)COC(=O)c1ccccc1C(=O)O` (stereo not shown) [MEHP, mono-(2-ethylhexyl)phthalate]?
**A.** expression of PPARγ target genes involved in adipocyte differentiation (3T3L1 cells; 3T3L1 cells, ref [42]): induced expression of PPARγ target genes; cellular lipid and triglyceride content (3T3L1 cells; 3T3L1 preadipocytes, ref [41],[42]): increased cellular lipid and triglyceride content; activation of hCAR2 (screen) (hCAR2 [2]; 24 h): significant activation of hCAR2; rank order potency across receptors (hCAR2 [2]; transactivation dose–response, Figure 4B): hCAR2 > hPXR > hPPARγ ≥ PPARβ/∂; activation of hPXR (screen) (hPXR [3]; 24 h): moderate activation of hPXR; EC50 (hPXR [3]; read-out: EC50 (hPXR), COS-1, 3A4-XREM reporter, 24 h, Figure 6/Table 4): 27 µM; hPXR interaction with SRC1 / activation (mammalian two-hybrid) (hPXR [5]): interacted with SRC1 in a dose-dependent manner; activation of hCAR3 (screen) (hCAR3): slight activation of hCAR1 and hCAR3 at the highest doses; activation of hCAR1 (screen) (hCAR1): slight activation of hCAR1 and hCAR3 at the highest doses; also recorded: little or no activation of hCAR1; CYP2B6 mRNA expression (CYP2B6): increased expression of CYP2B6; hCAR interaction with SRC1 / activation (mammalian two-hybrid) (hCAR2 [6]): interacted with SRC1 in a dose-dependent manner; activation of hPPARα (dose–response) (hPPARα): very little activation of hPPARα; expression of PPAR target genes (overall) [7]: Neither MEHP nor MiNP induced expression of any PPAR target genes; also recorded: no activation of PPAR target genes

**Q.** For `Cc1c(C)c2c(c(C)c1O)CCC(C)(COc1ccc(CC3SC(=O)NC3=O)cc1)O2` (stereo not shown) [TG, troglitazone], which “activation of hCAR variants and hPXR” value (hCAR variants and hPXR) is on record?
**A.** activates hCAR variants and hPXR

**Q.** And the “ANGPTL4 mRNA expression” value ([7]; 50 μM WY14643, 30 μM TG)?
**A.** inducing only ANG and CPT in HH3

**Q.** And the “CPT2 mRNA expression” value ([7]; 50 μM WY14643, 30 μM TG)?
**A.** inducing only ANG and CPT in HH3

**Q.** And the “expression of PPAR target genes (overall)” value [7]?
**A.** weak inducer of PPAR target genes
